Experimental data reported in ChEMBL document CHEMBL1135249, “Probing the overlap of chorismate mutase and prephenate dehydrogenase sites in the escherichia coli T-protein: a dehydrogenase-selective inhibitor” (Bioorg Med Chem Lett, 2002).

How the values were obtained:
[1] = Tested for its inhibitory activity against the enzyme prephenate dehydrogenase (PDH) in Escherichia coli T-protein
[2] = Tested for its inhibitory activity against the enzyme chorismate mutase (CM) in Escherichia coli T-protein
[3] = Tested for its inhibitory activity against the enzyme chorismate mutase (CM) in Escherichia coli T-protein; no effect up to 1 mM
[4] = Tested for the inhibition against prephenate dehydrogenase; design: species or system Escherichia coli

| IC50 [4] [µM] | SMILES | Ki [1] [µM] | Ki [2] [µM] | Ki [3] |
| --- | --- | --- | --- | --- |
|  | C=C(O[C@@H]1C=C(C(=O)O)CCC1O)C(=O)O (stereo partly specified) | 590 | 430 |  |
|  | O=P(O)(O)C12C[C@H]3C[C@@H](C1)C[C@@H](C2)C3 | 140 | 200 |  |
| 250 | O=C(O)[C@@H]1Cc2cccc3cccc(c23)C[C@H]1C(=O)O (racemic) | 212 |  | no effect up to 1 mM |
|  | C=C(O[C@@H]1C=C(C(=O)O)C(O)C(O)[C@H]1O)C(=O)O (stereo partly specified) | 110 | 410 |  |
|  | O=C(O)[C@]12C[C@H]3C[C@H](C[C@H](C3)C1)C2 | 310 | 430 |  |
